Results: patent US20230293475A1, “METHODS OF PROVIDING SO[…] TO SUBJECTS WITH IMPAIRED RENAL FUNCTION” (Axsome Malta Ltd., priority 2020, published 2023)
Read-outs that look alike come from different tables or passages of the source.

Assay: Phase 1 single-dose study, plasma PK of solriamfetol by level of renal function
Type: in vivo, human
Details: for AUCt, percent ratio (90% confidence interval) of geometric mean relative to Group 1 / AUC∞, percent ratio (90% confidence interval) of geometric mean relative to Group 1 / Cmax, percent ratio (90% confidence interval) of geometric mean relative to Group 1 / AUC(0-t) / AUC(0-inf) / Cmax / Vd/F / Tmax / half-life: single 75-mg dose; for AUC(0-t) / AUC(0-inf) / Cmax / Vd/F / Tmax / half-life: both sexes, human, plasma, oral, 75 mg; for Vd/F: read-out: Vd/F, mean ± SD (%CV); for Tmax: read-out: tmax, median (min, max); for half-life: read-out: t½, mean ± SD (%CV) (converted)
Experimental: In healthy subjects with normal renal function, solriamfetol HCl is renally excreted ~90% unchanged within 48 hours of administration. Thus, renal impairment, as well as hemodialysis in individuals with end-stage renal disease (ESRD), could affect the PK of solriamfetol HCl. To ascertain the precise impact of renal impairment and hemodialysis on pharmacokinetics and safety of solriamfetol RCl, a Phase 1, parallel-group, open-label, single-dose study was conducted at 2 U.S. sites. The protocol was approved by the IntegReview Institutional Review Board (Austin, Texas), and the study was conducted in compliance with the protocol, the Guideline for Good Clinical Practice E6; the US Code of Federal Regulations pertaining to conduct and reporting of clinical studies; the Clinical Trials Directive of the European Medicines Agency (Directive 2001/20/EC); and the Declaration of Helsinki. Written informed consent was obtained from each subject before enrollment in the study and before performance of any study-related procedure. See, also, Zomorodi K, Chen D, Lee L, Lasseter K, Marbury T. An Open-Label, Single-Dose, Phase 1 Study of the Pharmacokinetics and Safety of JZP-110 in Subjects With Normal or Impaired Renal Function and With End-Stage Renal Disease Requiring Hemodialysis [abstract]. Sleep. 2017;40 (suppl):A382-383.
Eligible participants were men and non-pregnant, non-lactating women between the ages of 18 and 80 years, with a body mass index (BMI) ≤ 35 kg/m^2. Women of childbearing potential were required to have used a medically accepted method of birth control for at least 2 months prior to the first dose of study drug, with continued use throughout the study period and for 30 days after study completion.
Eligible participants were assigned to 1 of 5 groups according to renal disease status as measured by the estimated glomerular filtration rate (eGFR) on the day prior to dosing, calculated using the Modification in Diet in Renal Disease equation. Group 1 consisted of healthy participants with normal renal function (eGFR ≥ 90 mL/min/1.73 m^2) and served as the control group. Groups 2, 3, and 4 had mild, moderate, and severe renal impairment based on eGFRs of 60-89, 30-59, and < 30 mL/min/1.73 m^2, respectively. Group 5 consisted of participants with ESRD who required ≥ 3 hemodialysis treatments per week for the preceding 3 months. […] Group 1 was enrolled last to facilitate matching the mean age, BMI, and sex distribution of Groups 2-5.
Groups 1-4 received one dose of solriamfetol HCl (89.3 mg; equivalent to 75-mg solriamfetol) on day 1; Group 5 received one dose equivalent to 75-mg dose on day 1 followed by 4-hour hemodialysis (designated Group 5.2), and one dose equivalent to 75-mg solriamfetol on day 8 without hemodialysis (designated Group 5.1). All doses were administered on an empty stomach following an overnight fast except for participants in Group 5, who received a standardized snack on day 7 and breakfast early on day 8 before starting an 8-hour fast. Participants remained fasting for 4 hours after administration, with water allowed except for 1 hour before and after dosing.
Serial blood samples of approximately 4 mL were collected within 30 minutes prior to dosing and at 0.5, 1, 1.5, 2, 2.5, 3, 4, 6, 8, 10, 12, 24, 36, and 48 hours post-dose in Groups 1-3, with continued sampling at 60 and 72 hours post-dose in Groups 4 and 5. All blood samples were collected into labeled K2EDTA tubes by direct venipuncture or indwelling catheter and kept on ice until the samples were centrifuged within 30 minutes of collection at approximately 2500 rpm (1315 × g) at 4° C. for 10 minutes. The plasma was transferred into polypropylene tubes for freezing and storage at -70° C. until analysis.
Bioanalytical analyses were performed by a central laboratory (KCAS, LLC, Shawnee, Kansas) using validated proprietary methods that included extraction/derivatization and liquid chromatography-tandem mass spectrometry (LC-MS/MS). […]

[1] = Group 3 moderate renal impairment
[2] = Group 4 severe renal impairment
[3] = Group 5.1 ESRD without hemodialysis
[4] = Group 5.2 ESRD with hemodialysis
[5] = Group 5.1 ESRD without hemodialysis, n=3
[6] = Group 5.2 ESRD with hemodialysis, n=6

## NC(=O)OC[C@H](N)Cc1ccccc1 [solriamfetol, [R]-2-amino-3-phenylpropylcarbamate]
ESRD requiring hemodialysis
  Cmax, lower relative to normal renal function: ≤ 19%
  overall exposure, fold increase relative to normal renal function: ≥ 4 fold
  t½, fold longer relative to normal renal function: ≥ 13 fold
Group 2 mild renal impairment
  Cmax, higher versus Group 1: approximately 6%
  total exposure (AUC∞), higher relative to Group 1: 53%
  AUCt, percent ratio (90% confidence interval) of geometric mean relative to Group 1: 158.3 (97.5, 256.9) %
  AUC∞, percent ratio (90% confidence interval) of geometric mean relative to Group 1: 152.9 (92.9, 251.7) %
  Cmax, percent ratio (90% confidence interval) of geometric mean relative to Group 1: 105.9 (80.6, 139.0) %
  Vd/F: 147 L
  Tmax: 1.5 h
  half-life: 9.1 ± 1.6 h
[1]
  Cmax, higher versus Group 1: ~4%
  total exposure (AUC∞), higher relative to Group 1: 129%
  AUCt, percent ratio (90% confidence interval) of geometric mean relative to Group 1: 219.2 (133.7, 359.6) %
  AUC∞, percent ratio (90% confidence interval) of geometric mean relative to Group 1: 229.2 (135.6, 387.4) %
  Cmax, percent ratio (90% confidence interval) of geometric mean relative to Group 1: 104.3 (78.4, 138.9) %
  Vd/F: 152 L
  Tmax: 1.5 h
  half-life: 14.3 ± 4.5 h
[2]
  Cmax, higher versus Group 1: ~11%
  total exposure (AUC∞), higher relative to Group 1: 339%
  AUCt, percent ratio (90% confidence interval) of geometric mean relative to Group 1: 380.4 (208.4, 694.4) %
  AUC∞, percent ratio (90% confidence interval) of geometric mean relative to Group 1: 438.6 (217.3, 885.3) %
  Cmax, percent ratio (90% confidence interval) of geometric mean relative to Group 1: 110.5 (81.1, 150.6) %
  Vd/F: 157 L
  Tmax: 2 h
  half-life: 29.6 ± 14.4 h
Group 5.1 ESRD without dialysis on day 8
  overall exposure (AUCt), fold higher relative to Group 1: approximately 5 fold
[3]
  Cmax, lower versus Group 1: approximately 3%
  exposure, higher versus Group 1: approximately 518%
  AUCt, percent ratio (90% confidence interval) of geometric mean relative to Group 1: 617.8 (385.3, 990.8) %
  AUC∞, percent ratio (90% confidence interval) of geometric mean relative to Group 1: 1290.6 (542.78, 3068.5) %
  Cmax, percent ratio (90% confidence interval) of geometric mean relative to Group 1: 97.2 (76.1, 124.1) %
  Tmax: 3.3 h
Group 5.2 ESRD with dialysis on day 1
  overall exposure (AUCt), fold higher relative to Group 1: about 4 fold
[4]
  Cmax, lower versus Group 1: ~19%
  exposure, higher versus Group 1: ~357%
  AUCt, percent ratio (90% confidence interval) of geometric mean relative to Group 1: 457.2 (296.6, 704.9) %
  AUC∞, percent ratio (90% confidence interval) of geometric mean relative to Group 1: 1496.5 (748.7, 2991.2) %
  Cmax, percent ratio (90% confidence interval) of geometric mean relative to Group 1: 80.9 (63.4,103.1) %
  Tmax: 1.5 h
Group 1 normal renal function, over 48 h, read-out: AUCt, mean ± SD (%CV)
  AUC(0-t): 4850 ± 3450 ng·h/mL
Group 1 normal renal function, over 48 hours, read-out: AUCt, geometric LS mean (converted)
  AUC(0-t): 4090 ng·h/mL
Group 1 normal renal function, read-out: AUC∞, geometric LS mean
  AUC(0-inf): 4360 ng·h/mL
Group 1 normal renal function, read-out: AUC∞, mean ± SD (%CV)
  AUC(0-inf): 5270 ± 4100 ng·h/mL
Group 1 normal renal function, read-out: Cmax, geometric LS mean
  Cmax: 482 ng/mL
Group 1 normal renal function, read-out: Cmax, mean ± SD (%CV)
  Cmax: 499 ng/mL
Group 1 normal renal function
  Vd/F: 164 L
  Tmax: 1.3 h
  half-life: 7.6 ± 5.1 h
Group 2 mild renal impairment, over 48 h, read-out: AUCt, mean ± SD (%CV)
  AUC(0-t): 6610 ng·h/mL
Group 2 mild renal impairment, over 48 hours, read-out: AUCt, geometric LS mean (converted)
  AUC(0-t): 6470 ng·h/mL
Group 2 mild renal impairment, read-out: AUC∞, geometric LS mean
  AUC(0-inf): 6670 ng·h/mL
Group 2 mild renal impairment, read-out: AUC∞, mean ± SD (%CV)
  AUC(0-inf): 6840 ng·h/mL
Group 2 mild renal impairment, read-out: Cmax, geometric LS mean
  Cmax: 510 ng/mL
Group 2 mild renal impairment, read-out: Cmax, mean ± SD (%CV)
  Cmax: 522 ng/mL
Group 3 moderate renal impairment, over 48 h, read-out: AUCt, mean ± SD (%CV)
  AUC(0-t): 9230 ng·h/mL
Group 3 moderate renal impairment, over 48 hours, read-out: AUCt, geometric LS mean (converted)
  AUC(0-t): 8960 ng·h/mL
Group 3 moderate renal impairment, read-out: AUC∞, geometric LS mean
  AUC(0-inf): 10000 ng·h/mL
Group 3 moderate renal impairment, read-out: AUC∞, mean ± SD (%CV)
  AUC(0-inf): 10500 ng·h/mL
Group 3 moderate renal impairment, read-out: Cmax, geometric LS mean
  Cmax: 503 ng/mL
Group 3 moderate renal impairment, read-out: Cmax, mean ± SD (%CV)
  Cmax: 517 ng/mL
Group 4 severe renal impairment, over 72 hours, read-out: AUCt, geometric LS mean (converted)
  AUC(0-t): 15500 ng·h/mL
Group 4 severe renal impairment, read-out: AUC∞, geometric LS mean
  AUC(0-inf): 19100 ng·h/mL
Group 4 severe renal impairment, read-out: AUC∞, mean ± SD (%CV)
  AUC(0-inf): 23600 ng·h/mL
Group 4 severe renal impairment, read-out: Cmax, geometric LS mean
  Cmax: 533 ng/mL
Group 4 severe renal impairment, read-out: Cmax, mean ± SD (%CV)
  Cmax: 553 ng/mL
Group 5.1 ESRD without hemodialysis, n=3, read-out: AUC∞, geometric LS mean
  AUC(0-inf): 56300 ng·h/mL
[5]
  Vd/F: 154 L
  half-life: 100 h
Group 5.1 ESRD without hemodialysis, over 72 hours, read-out: AUCt, geometric LS mean (converted)
  AUC(0-t): 25300 ng·h/mL
Group 5.1 ESRD without hemodialysis, read-out: Cmax, geometric LS mean
  Cmax: 469 ng/mL
Group 5.1 ESRD without hemodialysis, read-out: Cmax, mean ± SD (%CV)
  Cmax: 474 ng/mL
Group 5.2 ESRD with hemodialysis, n=6, read-out: AUC∞, geometric LS mean
  AUC(0-inf): 65300 ng·h/mL
[6]
  Vd/F: 231 L
  half-life: 165 h
Group 5.2 ESRD with hemodialysis, over 72 hours, read-out: AUCt, geometric LS mean (converted)
  AUC(0-t): 18700 ng·h/mL
Group 5.2 ESRD with hemodialysis, read-out: Cmax, geometric LS mean
  Cmax: 390 ng/mL
Group 5.2 ESRD with hemodialysis, read-out: Cmax, mean ± SD (%CV)
  Cmax: 396 ng/mL
Mild renal impairment
  AUC0-inf, fold compared with normal renal function: ~1.53 fold
  t½, fold increase compared with normal renal function: approximately 1.2 fold
Moderate renal impairment
  AUC0-inf, fold compared with normal renal function: ~2.29 fold
  t½, fold increase compared with normal renal function: ~1.9 fold
Severe renal impairment
  AUC0-inf, fold compared with normal renal function: ~4.39 fold
  t½, fold increase compared with normal renal function: ~3.9 fold
